{"source": "ChEMBL document CHEMBL5728698", "about": "“Pyrrolo[1,2-b]pyridazine derivatives” (2021)", "target": "T1, Interleukin-1 receptor-associated kinase 4 (Homo sapiens, UniProt Q9NWZ3)", "T1 sequence (Q9NWZ3 whole entry)": "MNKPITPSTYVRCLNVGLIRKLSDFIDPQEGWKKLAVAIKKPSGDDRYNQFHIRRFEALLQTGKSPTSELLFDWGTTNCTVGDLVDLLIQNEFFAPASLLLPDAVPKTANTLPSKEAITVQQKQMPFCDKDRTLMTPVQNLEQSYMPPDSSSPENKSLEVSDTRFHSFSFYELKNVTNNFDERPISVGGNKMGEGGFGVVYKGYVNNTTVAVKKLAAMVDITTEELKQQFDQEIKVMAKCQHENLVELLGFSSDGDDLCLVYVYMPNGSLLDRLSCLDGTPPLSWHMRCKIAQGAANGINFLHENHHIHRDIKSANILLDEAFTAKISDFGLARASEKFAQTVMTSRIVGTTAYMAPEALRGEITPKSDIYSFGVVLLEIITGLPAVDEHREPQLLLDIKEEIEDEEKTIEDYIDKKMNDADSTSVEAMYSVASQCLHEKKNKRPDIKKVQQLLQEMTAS", "assay": "IRAK4 Biochemical Assay: IRAK4 enzyme (Carna Biosciences, Chuo-ku, Kobe, Japan) activity was measured by detecting phosphorylated peptide substrate formation using an antibody against the phosphorylated peptide substrate. This is a time-resolved fluorescence resonance energy transfer (TR-FRET) immunoassay, based on the STK1 KinEASE Assay (Cisbio, Bedford, Mass.). The assay was designed as a simple two-step, endpoint assay (a 5 μl enzyme reaction followed by 5 μl stop and detect Solution) performed in ProxiPlate-384 Plus plates (Perkin Elmer, Waltham, Mass.). Staurosporine, a non-selective kinase inhibitor was used as a positive control. Compounds diluted in DMSO were spotted into 384 well plates using a Labcyte® Echo 550 Liquid Handling System prior to addition of IRAK4 enzyme and peptide substrate. Reaction solutions were delivered using a Multi-Flo (Bio-Tek Instruments). The enzyme and peptide solution was incubated with compound for 15 minutes at room temp before the reaction was initiated by the addition of ATP. The standard 5 μl reaction mixture contained 500 μM ATP, 2 μM peptide (STK1 Peptide), 0.75 nM of IRAK4 in reaction buffer (50 mM HEPES, pH 7.0, 0.02% NaN3, 0.01% BSA, 0.1 mM Orthovanadate, 5 mM MgCl2, 0.025% NP-40, 1 mM DTT). […]"}
{"compound": "COC(=O)NC[C@H]1C[C@H](Nc2cc(-c3ccc4cc(C#N)cnn34)ncc2-c2cn([C@H]3CC[C@H](NC(=O)N4CCOCC4)CC3)nn2)C1", "values": [{"measurement": "IC50", "value": "< 1", "unit": "nM"}]}
